Paper PMC3246389 (Nature biotechnology, 2011)

Tests used:
[1] = read-out: Kd, literature value; SPR on immobilized GM1; cited from earlier work
GABAB receptor = GABAB receptor (Homo sapiens, UniProt Q9UBS5); type: binding, rat and human; details: control ligand tested at the highest concentration
Sequence of GABAB receptor (Q9UBS5 1-844 isoform Q9UBS5-2): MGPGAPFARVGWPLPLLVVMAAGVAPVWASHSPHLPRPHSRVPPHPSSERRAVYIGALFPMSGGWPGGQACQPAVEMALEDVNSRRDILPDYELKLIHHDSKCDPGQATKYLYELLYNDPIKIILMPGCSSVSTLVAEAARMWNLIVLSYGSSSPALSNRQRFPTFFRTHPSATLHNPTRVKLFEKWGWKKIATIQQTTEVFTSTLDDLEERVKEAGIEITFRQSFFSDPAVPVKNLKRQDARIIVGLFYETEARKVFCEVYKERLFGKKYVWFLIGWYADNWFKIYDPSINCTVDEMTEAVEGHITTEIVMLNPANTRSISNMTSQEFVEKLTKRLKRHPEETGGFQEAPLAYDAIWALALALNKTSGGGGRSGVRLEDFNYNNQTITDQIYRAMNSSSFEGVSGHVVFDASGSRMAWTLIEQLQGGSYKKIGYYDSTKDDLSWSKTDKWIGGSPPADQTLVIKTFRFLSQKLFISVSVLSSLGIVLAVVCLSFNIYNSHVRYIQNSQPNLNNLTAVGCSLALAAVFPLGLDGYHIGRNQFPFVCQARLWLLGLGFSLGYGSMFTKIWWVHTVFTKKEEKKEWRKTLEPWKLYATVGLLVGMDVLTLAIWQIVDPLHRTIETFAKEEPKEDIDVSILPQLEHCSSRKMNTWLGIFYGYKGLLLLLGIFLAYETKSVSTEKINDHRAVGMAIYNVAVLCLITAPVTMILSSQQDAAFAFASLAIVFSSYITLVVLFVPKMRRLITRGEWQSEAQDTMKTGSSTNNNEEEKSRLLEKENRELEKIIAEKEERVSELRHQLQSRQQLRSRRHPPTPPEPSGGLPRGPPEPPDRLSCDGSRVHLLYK
Sequence of GABAB receptor (O88871 41-940 partner): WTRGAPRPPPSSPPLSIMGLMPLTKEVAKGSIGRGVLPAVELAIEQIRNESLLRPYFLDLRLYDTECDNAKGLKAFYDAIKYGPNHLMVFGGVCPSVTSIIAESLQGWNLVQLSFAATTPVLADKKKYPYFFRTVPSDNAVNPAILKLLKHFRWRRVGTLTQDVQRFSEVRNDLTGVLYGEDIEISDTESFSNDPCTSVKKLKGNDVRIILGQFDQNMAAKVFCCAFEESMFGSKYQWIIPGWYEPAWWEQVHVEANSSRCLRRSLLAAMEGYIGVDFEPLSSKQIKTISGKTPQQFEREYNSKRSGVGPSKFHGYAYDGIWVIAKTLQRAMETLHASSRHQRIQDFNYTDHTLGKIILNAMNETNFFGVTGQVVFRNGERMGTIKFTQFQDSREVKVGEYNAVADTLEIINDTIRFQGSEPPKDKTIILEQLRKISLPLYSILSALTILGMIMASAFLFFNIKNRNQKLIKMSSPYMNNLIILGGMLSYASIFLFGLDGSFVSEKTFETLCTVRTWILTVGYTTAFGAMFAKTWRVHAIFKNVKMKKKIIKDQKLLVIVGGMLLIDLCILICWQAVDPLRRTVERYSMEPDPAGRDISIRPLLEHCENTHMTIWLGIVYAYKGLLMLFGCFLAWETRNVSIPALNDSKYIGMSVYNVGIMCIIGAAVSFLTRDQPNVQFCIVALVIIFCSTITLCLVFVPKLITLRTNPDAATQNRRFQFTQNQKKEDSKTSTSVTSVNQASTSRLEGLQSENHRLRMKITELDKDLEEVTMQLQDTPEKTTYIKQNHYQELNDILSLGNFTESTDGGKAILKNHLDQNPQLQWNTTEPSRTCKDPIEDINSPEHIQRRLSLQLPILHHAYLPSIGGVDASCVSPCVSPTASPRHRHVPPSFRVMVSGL

In the case of “Cholera toxin B subunit: cholera toxin B subunit, soluble protein that binds GM1; purchased from Sigma”, the Kd [1] is listed as 4 pM.
With `CC(C)CCC[C@@H](C)[C@H]1CC[C@H]2[C@@H]3CC=C4C[C@@H](O)CC[C@]4(C)[C@H]3CC[C@]12C` [cholesterol] the “BSI binding curve (negative control)” value (GABAB receptor) was “negative control”.
For `C[C@H](N)C(=O)O` [L-alanine], the “BSI binding curve (negative control)” value (GABAB receptor) was “negative control”.
